Earlier results in patent US6673157B1, “Methods for stripping paint with DMSO containing compositions” (Gaylord Chemical Corporation, priority 2000, dated 2004).

Columns and labels:
[1] = pure substance
[2] = applied to intact human skin in vivo; abrupt fall-off below 70%
[3] = DMSO concentrations as high as 40%; living human skin

Row | Compound | LD50 oral rat toxicity | Rate of penetration of animal skin [1] | DMSO concentration at which it penetrates intact skin to the blood vessels [2] [%] | Effect of DMSO on rate of skin penetration of octyl acetate [3]
1 | CC(=O)OC(C)(C)C [t-butyl acetate] | about 4500 mg per kilogram |  |  | 
2 | C[S+](C)[O-] [DMSO, dimethyl sulfoxide] | approximately 17,400 milligrams per kilogram | approximately 176±42 g/m^2/hr | ≥ 70 | did not increase the rate of skin penetration of octyl acetate
3 | O [water, reference compound] |  | approximately 14.8±0.1 g/m^2/hr |  | 
